Data taken from patent US20240050576A1, “METHODS AND COMPOUNDS FOR THE TREATMENT OF GENETIC DISEASE” (Design Therapeutics, Inc., priority 2020, published 2024).

What follows are compounds tested on human FXN (assay: FXN mRNA expression by qRT-PCR in GM15850 cells after 48 hr compound treatment). Settings: GM15850 cells, 48 hr incubation, hFXN normalized to hGAPDH; read-out: EC50 WT (nM, 48 hr).
Assay type: cell-based
Description: Cell culture: Cells were cultured in RPMI1640 medium+15% FBS. Cells were maintained at a density between 2e5/mL and 1e6/mL. Cells were centrifuged, resuspended in fresh medium, counted and plated at 150,000 cells per well in 100 uL in a non-coated, flat bottom tissue culture plate.
Compound treatment: 10 mM stock solution of FA GeneTAC was diluted 1:10 in DMSO followed by a 1:100 dilution in growth medium. […] Compound was then diluted at a 1:3 ratio into growth medium containing 0.01% DMSO. 5-point, 3-fold dose response curve was generated. 11 μL of 10× compound was added to wells containing 100 μL cell suspension of GM15850. 11 μL growth medium containing 0.01% DMSO was added to all wells not treated with FA GeneTAC. Cells were allowed to incubate for 48 hrs prior to cell lysis using guanidine isothiocyanate solution.
RNA isolation: Total RNA was isolated and purified in 384-well column filter plates using chaotropic salt.
qRT-PCR: qRT-PCR reactions were assembled using AgPath-ID reagents (Thermo Fisher) using 6 uL mastermix and 4 μL RNA. qRT-PCR TaqMan primer probe sets against human FXN (Assay ID Hs01075496_m1) and human GAPDH (Assay ID Hs00266705_g1) were used to measure the intended targets. qRT-PCR was run on the ThermoFisher QuantStudio 6 PRO instrument using the manufacturer's recommended cycling conditions.
Data analysis: qPCR data was analyzed using Thermo Fisher Design and Analysis software. Data was exported to Excel and hFXN expression was normalized to hGAPDH expression.

Question: For `Cc1sc2c(c1C)C(c1ccc(Cl)cc1)=N[C@@H](CC(=O)Nc1ccc(OCCOCCOCCOCCOCCOCCC(=O)NCCCN(CCCNC(=O)CCNC(=O)c3nc(NC(=O)CCNC(=O)c4cc(NC(=O)c5nc(NC(=O)CCNC(=O)c6cc(NC(=O)c7nccn7C)cn6C)cn5C)cn4C)cn3C)CC(F)(F)F)cc1)c1nnc(C)n1-2` [Compound 38], which EC50 is on record?
Answer: < 100 nM

Same assay, conditions: Homo sapiens; GM15850 cells, 48 hr incubation, hFXN normalized to hGAPDH; read-out: EC50 WT (nM, 48 hr)

Question: For `Cc1sc2c(c1C)C(c1ccc(Cl)cc1)=N[C@@H](CC(=O)NC1CCN(CCOCCOCCOCCOCCOCCC(=O)NCCCN(CCCNC(=O)CCNC(=O)c3nc(NC(=O)CCNC(=O)c4cc(NC(=O)c5nc(NC(=O)CCNC(=O)c6cc(NC(=O)c7nccn7C)cn6C)cn5C)cn4C)cn3C)CC(F)(F)F)CC1)c1nnc(C)n1-2` [Compound 101], which EC50 is on record?
Answer: 100 to 500 nM

Question: `COC[C@@H](C)n1c(C2CCN(CCOCCOCCOCCOCCOCCC(=O)NCCCN(C)CCCNC(=O)CCNC(=O)c3nc(NC(=O)CCNC(=O)c4cc(NC(=O)c5nc(NC(=O)CCNC(=O)c6cc(NC(=O)c7nccn7C)cn6C)cn5C)cn4C)cn3C)CC2)nc2cnc3cc(-c4c(C)noc4C)c(OC)cc3c21` [Compound 10] was tested. Which EC50 did it give?
Answer: 100 to 500 nM

Question: With `CC(=O)N1c2ccc(-c3ccc(C(=O)NCCOCCOCCOCCOCCOCCOCCOCCOCCNC(=O)c4nc(NC(=O)CCNC(=O)c5cc(NC(=O)c6nc(NC(=O)CCNC(=O)c7cc(NC(=O)c8nc(NC(=O)CCNC(=O)COCCOCCOCCN9CCN(CC%10CCNCC%10)CC9)cn8C)cn7C)cn6C)cn5C)cn4C)cc3)cc2[C@H](Nc2ccc(Cl)cc2)C[C@@H]1C` [Compound 88] as the compound, how does the EC50 read?
Answer: > 500 nM

Question: For `Cc1sc2c(c1C)C(c1ccc(Cl)cc1)=N[C@@H](CC(=O)Nc1ccc(OCCOCCOCCOCCOCCOCCOCCOCC(=O)NCCNC(=O)CCNC(=O)c3nc(NC(=O)CCNC(=O)c4cc(NC(=O)c5nc(NC(=O)CCNC(=O)c6cc(NC(=O)c7nccn7C)cn6C)cn5C)cn4C)cn3C)cc1)c1nnc(C)n1-2` [Compound 17], which EC50 is on record?
Answer: < 100 nM

Question: With `COc1ccc2c(c1)C(c1ccc(Cl)cc1)=N[C@@H](CC(=O)Nc1ccc(OCCOCCOCCNC(=O)[C@H](CCCNC(=N)N)NC(=O)[C@H](CCCNC(=N)N)NC(=O)CCOCCOCCOCCNC(=O)CCNC(=O)c3nc(NC(=O)CCNC(=O)c4cc(NC(=O)c5nc(NC(=O)CCNC(=O)c6cc(NC(=O)c7nccn7C)cn6C)cn5C)cn4C)cn3C)cc1)c1nnc(C)n1-2` [Compound 100] as the compound, how does the EC50 read?
Answer: 100 to 500 nM

Question: Which EC50 does the source give for `CCCNC(=O)CCNC(=O)c1nc(NC(=O)CCNC(=O)c2cc(NC(=O)c3nc(NC(=O)CCNC(=O)c4cc(NC(=O)c5nc(NC(=O)COCCOCCOCCOCCOCCOCCOCCOc6ccc(NC(=O)C[C@@H]7N=C(c8ccc(Cl)cc8)c8c(sc(C)c8C)-n8c(C)nnc87)cc6)cn5C)cn4C)cn3C)cn2C)cn1C` [Compound 49] here?
Answer: < 100 nM

Question: With `CC(=O)N1c2ccc(-c3ccc(C(=O)NCCOCCOCCOCCOCCOCCC(=O)NCCCN(C)CCCNC(=O)CCNC(=O)c4nc(NC(=O)CCNC(=O)c5cc(NC(=O)c6nc(NC(=O)CCNC(=O)c7cc(NC(=O)c8nccn8C)cn7C)cn6C)cn5C)cn4C)cc3)cc2[C@H](Nc2ccc(Cl)cc2)C[C@@H]1C` [Compound 31] as the compound, how does the EC50 read?
Answer: < 100 nM

Question: With `CC(=O)N1c2ccc(-c3ccc(C(=O)NCCOCCOCCOCCOCCOCCOCCOCCOCCNC(=O)c4nc(NC(=O)CCNC(=O)c5cc(NC(=O)c6nc(NC(=O)CCNC(=O)c7cc(NC(=O)c8nc(NC(=O)CCNC(=N)N)cn8C)cn7C)cn6C)cn5C)cn4C)cc3)cc2[C@H](Nc2ccc(Cl)cc2)C[C@@H]1C` [Compound 86, N-[5-([2-[(2-[[26-([4-[(2S,4R)-1-acetyl-4-[(4-chlorophenyl)amino]-2-methyl-3,4-dihydro-2H-quinolin-6-yl]phenyl]formamido)-3,6,9,12,15,18,21,24-octaoxahexacosan-1-yl]carbamoyl]-1-methylimidazol-4-yl)carbamoyl]ethyl]carbamoyl)-1-methylpyrrol-3-yl]-4-[3-([4-[4-(3-carbamimidamidopropanamido)-1-methylimidazole-2-amido]-1-methylpyrrol-2-yl]formamido)propanamido]-1-methylimidazole-2-carboxamide] as the compound, how does the EC50 read?
Answer: > 500 nM

Question: Which EC50 does the source give for `COc1ccc2c(c1)C(c1ccc(Cl)cc1)=N[C@@H](CC(=O)Nc1ccc(OCCOCCOCCOCCOCCOCCC(=O)NCCCN(C)CCCNC(=O)CCNC(=O)c3nc(NC(=O)CCNC(=O)c4cc(NC(=O)c5nc(NC(=O)CCNC(=O)c6cc(NC(=O)c7nccn7C)cn6C)cn5C)cn4C)cn3C)cc1)c1nnc(C)n1-2` [Compound 6] here?
Answer: 100 to 500 nM

Question: `Cc1noc(C)c1-c1cnc2c(-c3ccc(C(=O)NCCOCCOCCOCCOCCOCCOCCOCCOCCNC(=O)CCNC(=O)c4nc(NC(=O)CCNC(=O)c5cc(NC(=O)c6nc(NC(=O)CCNC(=O)c7cc(NC(=O)c8nccn8C)cn7C)cn6C)cn5C)cn4C)cc3)cn([C@@H](C)c3ccccn3)c2c1` [Compound 42] was tested. Which EC50 did it give?
Answer: < 100 nM

Question: For `COC[C@@H](C)n1c(C2CCN(C(=O)COCCOCCOCCOCCOCCC(=O)NCCCN(C)CCCNC(=O)CCNC(=O)c3nc(NC(=O)CCNC(=O)c4cc(NC(=O)c5nc(NC(=O)CCNC(=O)c6cc(NC(=O)c7nccn7C)cn6C)cn5C)cn4C)cn3C)CC2)nc2cnc3cc(-c4c(C)noc4C)c(OC)cc3c21` [Compound 20], which EC50 is on record?
Answer: 100 to 500 nM

Question: `COc1ccc2c(c1)C(c1ccc(Cl)cc1)=N[C@@H](CC(=O)Nc1ccc(OCCOCCOCCOCCOCCOCCOCCOCCOCCNC(=O)CCNC(=O)c3nc(NC(=O)CCNC(=O)c4cc(NC(=O)c5nc(NC(=O)CCNC(=O)c6cc(NC(=O)c7nccn7C)cn6C)cn5C)cn4C)cn3C)cc1)c1nnc(C)n1-2` [Compound 25] was tested. Which EC50 did it give?
Answer: 100 to 500 nM

Question: For `Cc1sc2c(c1C)C(c1ccc(Cl)cc1)=N[C@@H](CC(=O)Nc1ccc(OCCOCCOCCOCCOCCOCCC(=O)N(C)CCCN(C)CCCNC(=O)CCNC(=O)c3nc(NC(=O)CCNC(=O)c4cc(NC(=O)c5nc(NC(=O)CCNC(=O)c6cc(NC(=O)c7nccn7C)cn6C)cn5C)cn4C)cn3C)cc1)c1nnc(C)n1-2` [Compound 53], which EC50 is on record?
Answer: 100 to 500 nM

Question: For `CCCNC(=O)c1nc(NC(=O)CCNC(=O)c2cc(NC(=O)c3nc(NC(=O)CCNC(=O)c4cc(NC(=O)c5nc(NC(=O)CCNC(=O)COCCOCCOCCOCCOCCOCCOCCOc6ccc(NC(=O)C[C@@H]7N=C(c8ccc(Cl)cc8)c8c(sc(C)c8C)-n8c(C)nnc87)cc6)cn5C)cn4C)cn3C)cn2C)cn1C` [Compound 51], which EC50 is on record?
Answer: < 100 nM

Question: How did the EC50 turn out when `Cc1sc2c(c1C)C(c1ccc(Cl)cc1)=N[C@@H](CC(=O)Nc1ccc(OCCOCCOCCOCCOCCOCCC(=O)N(C)CCCN(C)CCCN(C)C(=O)CCNC(=O)c3nc(NC(=O)CCNC(=O)c4cc(NC(=O)c5nc(NC(=O)CCNC(=O)c6cc(NC(=O)c7nccn7C)cn6C)cn5C)cn4C)cn3C)cc1)c1nnc(C)n1-2` [Compound 54] was run?
Answer: 100 to 500 nM

Question: How did the EC50 turn out when `COC[C@@H](C)n1c(C2CCN(C(=O)COCCOCCOCCOCCOCCOCCOCCNC(=O)CCNC(=O)c3nc(NC(=O)CCNC(=O)c4cc(NC(=O)c5nc(NC(=O)CCNC(=O)c6cc(NC(=O)c7nccn7C)cn6C)cn5C)cn4C)cn3C)CC2)nc2cnc3cc(-c4c(C)noc4C)c(OC)cc3c21` [Compound 43, N-[5-[(2-[[2-([2-[(23-[4-[7-(3,5-dimethyl-1,2-oxazol-4-yl)-8-methoxy-1-[(2R)-1-methoxypropan-2-yl]imidazo[4,5-c]quinolin-2-yl]piperidin-1-yl]-23-oxo-3,6,9,12,15,18,21-heptaoxatricosan-1-yl)carbamoyl]ethyl]carbamoyl)-1-methylimidazol-4-yl]carbamoyl]ethyl)carbamoyl]-1-methylpyrrol-3-yl]-1-methyl-4-(3-[[1-methyl-4-(1-methylimidazole-2-amido)pyrrol-2-yl]formamido]propanamido) imidazole-2-carboxamide] was run?
Answer: > 500 nM

Question: With `CC(=O)N1c2ccc(-c3ccc(C(=O)NCCOCCOCCOCCOCCOCCOCCOCCOCCNC(=O)c4cc(NC(=O)c5nc(NC(=O)CCNC(=O)c6cc(NC(=O)c7nc(NC(=O)CCNC(=O)COCCOCCOCCN8CCN(CC9CCNCC9)CC8)cn7C)cn6C)cn5C)cn4C)cc3)cc2[C@H](Nc2ccc(Cl)cc2)C[C@@H]1C` [Compound 73] as the compound, how does the EC50 read?
Answer: > 500 nM

Question: How did the EC50 turn out when `CC(=O)N1c2ccc(-c3ccc(C(=O)NCCOCCOCCOCCOCCOCCOCCOCCOCCNC(=O)c4nc(NC(=O)CCNC(=O)c5cc(NC(=O)c6nc(NC(=O)CCNC(=O)c7cc(NC(=O)c8nc(NC(=O)CCNC(=O)COCCOCCOCCNC(=N)N)cn8C)cn7C)cn6C)cn5C)cn4C)cc3)cc2[C@H](Nc2ccc(Cl)cc2)C[C@@H]1C` [Compound 87] was run?
Answer: 100 to 500 nM

Question: How did the EC50 turn out when `Cc1sc2c(c1C)C(c1ccc(Cl)cc1)=N[C@@H](CC(=O)Nc1ccc(OCCOCCOCCOCC(=O)N3CCN(CCOCCOCCOCCNC(=O)CCNC(=O)c4nc(NC(=O)CCNC(=O)c5cc(NC(=O)c6nc(NC(=O)CCNC(=O)c7cc(NC(=O)c8nccn8C)cn7C)cn6C)cn5C)cn4C)CC3)cc1)c1nnc(C)n1-2` [Compound 39] was run?
Answer: < 100 nM
